Measured values taken from BigSolDB 2.1.

O=C(N[C@@H](Cc1c[nH]c2ccccc12)C(=O)O)OCc1ccccc1
solubility (mole fraction)
Settings | 283.15 K | 288.15 K | 293.15 K | 298.15 K | 303.15 K | 308.15 K | 313.15 K | 318.15 K | 323.15 K
in 2-butanone | 0.133 | 0.143 | 0.152 | 0.161 | 0.173 | 0.182 | 0.196 | 0.205 | 0.221
in acetone | 0.204 | 0.23 | 0.264 | 0.306 | 0.358 | 0.409 | 0.458 | 0.505 | 0.557
in acetonitrile | 0.0197 | 0.025 | 0.0305 | 0.0428 | 0.06 | 0.0766 | 0.0967 | 0.117 | 0.134
in ethanol | 0.0567 | 0.0689 | 0.0826 | 0.1 | 0.124 | 0.142 | 0.164 | 0.189 | 0.208
in ethyl acetate | 0.0484 | 0.0559 | 0.0629 | 0.0707 | 0.0794 | 0.0906 | 0.103 | 0.118 | 0.133
in isobutanol | 0.00972 | 0.0123 | 0.0177 | 0.0245 | 0.0302 | 0.0379 | 0.045 | 0.0547 | 0.0692
in isopropanol | 0.0299 | 0.0351 | 0.0439 | 0.0536 | 0.0656 | 0.08 | 0.0917 | 0.109 | 0.125
in methyl acetate | 0.0663 | 0.0737 | 0.0836 | 0.0968 | 0.112 | 0.125 | 0.141 | 0.162 | 0.182
in n-butanol | 0.0231 | 0.0278 | 0.0334 | 0.0403 | 0.0526 | 0.0666 | 0.0784 | 0.0941 | 0.114
in n-pentanol | 0.0181 | 0.0209 | 0.0252 | 0.0322 | 0.0393 | 0.0458 | 0.0536 | 0.0631 | 0.0717
in n-propanol | 0.0283 | 0.0389 | 0.0502 | 0.064 | 0.0763 | 0.0881 | 0.104 | 0.123 | 0.141
in water | 4.06e-05 | 5.32e-05 | 6.49e-05 | 7.79e-05 | 8.87e-05 | 9.81e-05 | 0.000109 | 0.000118 | 0.000125
